Structures are written as SMILES. Values after ≈ are worked out from the molar mass of the structure shown. Active and inactive are the calls of the source. The rule behind the calls is not given here.

One data set addresses T1, Bile acid receptor (Homo sapiens, UniProt Q96RI1).
T1 sequence (Q96RI1 whole entry): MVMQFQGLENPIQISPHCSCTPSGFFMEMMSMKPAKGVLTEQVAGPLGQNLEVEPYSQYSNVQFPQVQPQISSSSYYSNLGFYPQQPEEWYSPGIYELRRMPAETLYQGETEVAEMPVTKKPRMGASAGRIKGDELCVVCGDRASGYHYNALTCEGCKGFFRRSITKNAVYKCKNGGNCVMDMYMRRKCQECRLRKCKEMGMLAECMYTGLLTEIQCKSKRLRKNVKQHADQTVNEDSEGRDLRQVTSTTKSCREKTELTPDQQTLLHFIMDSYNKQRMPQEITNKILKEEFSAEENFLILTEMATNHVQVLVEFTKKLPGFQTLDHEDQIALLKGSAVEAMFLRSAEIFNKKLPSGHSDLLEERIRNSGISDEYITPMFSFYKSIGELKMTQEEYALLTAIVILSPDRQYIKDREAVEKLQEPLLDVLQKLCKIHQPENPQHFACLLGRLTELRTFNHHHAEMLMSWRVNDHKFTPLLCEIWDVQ
Put plainly: Agonist activity at human FXR expressed in human HeLa cells assessed as transactivation after 24 hrs by luciferase reporter gene assay. The format is cell-based. (In general: A reporter such as luciferase makes a cellular process visible.)

The target of data set [1] is T2, Bile acid receptor (Homo sapiens) (UniProt Q96RI1).
T2 sequence (whole entry): T1 sequence (Q96RI1 whole entry)
Put plainly: Agonist activity at human FXR expressed in human HeLa cells assessed as transactivation after 24 hrs by luciferase reporter gene assay relative to GW4064. The format is cell-based.

In data set [2] the target is T2, Bile acid receptor (Homo sapiens). Put plainly: Agonist activity at human FXR expressed in human HeLa cells assessed as transactivation at 30 uM after 24 hrs by luciferase reporter gene assay relative to GW4064. The format is cell-based.
For data set [3], the system named is HeLa. Put plainly: Cytotoxicity against human HeLa cells at >10 uM after 48 hrs by WST-1 assay. The format is cell-based. For orientation: Tetrazolium dyes change colour on reduction, which living cells bring about.
Data set [4] has as its target T2, Bile acid receptor (Homo sapiens). Put plainly: Agonist activity at human FXR expressed in human HeLa cells assessed as transactivation at 3 uM after 24 hrs by luciferase reporter gene assay relative to GW4064. The format is cell-based.
The test system of data set [5] is HepG2. The data set is described as follows: Cytotoxicity against human HepG2 cells at 30 uM after 48 hrs by WST-1 assay relative to control. The format is cell-based. As to conditions: hepg2, 48 h.
For data set [6], the system named is HepG2. Put plainly: Cytotoxicity against human HepG2 cells at 60 uM after 48 hrs by WST-1 assay relative to control. The format is cell-based. To be noted: hepg2, 48 h.
For data set [7], the system named is HepG2. Put plainly: Cytotoxicity against human HepG2 cells at 10 uM after 48 hrs by WST-1 assay relative to control. To be noted: hepg2, 48 h. The format is cell-based.
Data set [8] can be described thus: Metabolic stability in Sprague-Dawley rat liver microsomes assessed as compound remaining at 10 uM after 30 mins by HPLC analysis. The format is ADME. As to conditions: read-out: Stability. Background: Microsomes from liver hold many membrane-bound enzymes, among them those of drug oxidation.
Data set [9] can be described thus: Metabolic stability in Sprague-Dawley rat liver microsomes assessed as compound remaining at 10 uM after 60 mins by HPLC analysis. The format is ADME. As to conditions: read-out: Stability.
Data set [10] relates to HeLa. The data set is described as follows: Cytotoxicity against human HeLa cells at 60 uM after 48 hrs by WST-1 assay. The format is cell-based.
Data set [11] can be described thus: Aqueous solubility of the compound. The format is physicochemical. As to conditions: water.
The nature of data set [12]: Metabolic stability in Sprague-Dawley rat liver microsomes assessed as compound remaining at 10 uM after 15 mins by HPLC analysis. The format is ADME. To be noted: read-out: Stability.
Data set [13] concerns HepG2. Put plainly: Cytotoxicity against human HepG2 cells at 100 uM after 48 hrs by WST-1 assay relative to control. The format is cell-based. To be noted: hepg2, 48 h.

In general, EC50 refers to the concentration giving half of the maximal effect. Turning to `CCc1ccc(C(=O)Nc2ccccc2C(=O)NCCCC(=O)O)cc1`, the EC50 at Bile acid receptor was determined as 5800 nM. The max activation in data set [1] stood at 28%.
On to `CN(C(=O)c1ccc2ccccc2c1)c1ccccc1C(=O)NCCCC(=O)O`, for which the max activation entry in data set [2] is “inactive”.
As to `O=C(O)CCCNC(=O)c1ccccc1NC(=O)/C=C/c1ccccc1`, at Bile acid receptor, the EC50 worked out at 720 nM. In data set [1], the max activation was 12.4%.
On the same counts, the results for `O=C(O)c1ccc(NC(=O)c2ccccc2NC(=O)c2ccc3ccccc3c2)cc1` are 1000 nM and 23%.
In the same order, the values of `COC(=O)CCCNC(=O)c1ccccc1NC(=O)c1ccc2ccccc2c1` are 7100 nM and 19%.
As for `COc1ccc(C(=O)Nc2ccccc2C(=O)NCCCC(=O)O)cc1`, in the data set with HeLa [3], the Activity entry was “Toxic”. Moreover, the max activation result in data set [4] was “inactive”.
The solubility is the dissolved amount per volume that the medium holds. In the case of `O=C(O)c1cccc(NC(=O)c2ccccc2NC(=O)c2ccc3ccccc3c2)c1`, the Activity with HepG2 [5] is reported as 65%; in the data set with HepG2 [6], 50%; with HepG2 [7], 93%; with HeLa [10] it was “Non-toxic”; in the data set on HepG2 [13], 46%. Moreover, the remaining at 0.5 h, 10 µM in data set [8] was 76%. Besides, the remaining at 1 h, 10 µM in [9] is 61%. For the same compound, the EC50 on Bile acid receptor was 1500 nM. Besides, the solubility in [11] worked out at 0.3 µg/mL (≈ 0.731 µM). Also, the remaining at 0.25 h, 10 µM in data set [12] was found to be 86%. Further, the max activation in data set [1] is 37%.
For the compound `O=C(O)CCCCCNC(=O)c1ccccc1NC(=O)c1ccc2ccccc2c1`, the EC50 on Bile acid receptor came to 4400 nM. Moreover, the max activation in [1] came out at 10.4%.
On to `O=C(O)CCCNC(=O)c1ccccc1NC(=O)c1cc([N+](=O)[O-])cc([N+](=O)[O-])c1`, for which the max activation result in data set [2] is “inactive”.
On the same count and under the same terms, the value for `O=C(O)CCCNC(=O)c1ccccc1NS(=O)(=O)c1ccc2ccccc2c1` was “inactive”.
Same read-out and setting: then `O=C(O)CCCNC(=O)c1ccccc1NC(=O)CCc1ccccc1`, with “inactive”; and `O=C(O)CCCNC(=O)c1ccccc1NC(=O)c1cccc2ccccc12`, with “inactive”.
As to `O=C(O)CCCNC(=O)c1ccccc1NC(=O)c1ccncc1`, the max activation result in data set [2] was “inactive”.
The same measure, in the same setting: then `Cc1ccc(C(=O)Nc2ccccc2C(=O)NCCCC(=O)O)cc1`, with 11%.
Regarding `O=C(O)CCCCNC(=O)c1ccccc1NC(=O)c1ccc2ccccc2c1`, at Bile acid receptor, the EC50 came out at 8300 nM. Besides, the max activation in data set [1] was found to be 11.4%.
`O=C(O)CCCNC(=O)c1ccccc1NC(=O)C(c1ccccc1)c1ccccc1`: the Activity entry in the data set with HeLa [3] is recorded as “Toxic”. Moreover, the max activation result in data set [4] was “inactive”.
As for `O=C(O)CCCNC(=O)c1ccccc1NC(=O)c1ccccc1-c1ccccc1`, in data set [2], the max activation entry is “inactive”.
Consider `O=C(O)CCCNC(=O)c1ccccc1NC(=O)Cc1ccc2ccccc2c1`, for which the max activation entry in data set [2] is “inactive”.
`O=C(O)CCCNC(=O)c1ccccc1NC(=O)c1cccs1`: in the data set with HeLa [3], the Activity result is recorded as “Toxic”. Moreover, in data set [4], the max activation result is “inactive”.
For the compound `O=C(O)CCCNC(=O)c1ccccc1NC(=O)c1cccc(-c2ccccc2)c1`, the max activation result in data set [2] was “inactive”.
With `O=C(O)Cc1ccc(NC(=O)c2ccccc2NC(=O)c2ccc3ccccc3c2)cc1`, the EC50 at Bile acid receptor came to 3100 nM. The max activation in [1] was 9.8%.
On to `O=C(O)CCCNC(=O)c1ccccc1NCc1ccc2ccccc2c1`, for which, in data set [2], the max activation result is “inactive”.
On to `CN(CCCC(=O)O)C(=O)c1ccccc1NC(=O)c1ccc2ccccc2c1`, for which, in data set [2], the max activation result was “inactive”.
For the compound `O=C(O)CCCNC(=O)c1ccccc1NC(=O)c1ccc(-c2ccccc2)cc1`, in the data set on HeLa [3], the Activity result is recorded as “Toxic”. In addition, the max activation entry in data set [4] is “inactive”.
With `O=C(O)c1ccc(CNC(=O)c2ccccc2NC(=O)c2ccc3ccccc3c2)cc1`, the EC50 at Bile acid receptor came out at 1300 nM. The max activation in [1] came out at 10%.
On the same counts, the results for `CC(C)(C)c1ccc(C(=O)Nc2ccccc2C(=O)NCCCC(=O)O)cc1` are 2500 nM and 19%.
Consider `O=C(O)CCCNCc1ccccc1NC(=O)c1ccc2ccccc2c1`, for which the max activation result in [2] is “inactive”.
On the same count and under the same terms, then `O=C(O)CCCNC(=O)c1ccccc1NC(=O)CC(c1ccccc1)c1ccccc1`, with “inactive”.

The values are drawn from ChEMBL document CHEMBL3259655, “Anthranilic acid derivatives as novel ligands for farnesoid X receptor (FXR)” (Bioorg Med Chem, 2014).
